Results from US7217701B2, “Intracellular calcium concentration increase inhibitors” (Katsuhiko Mikoshiba, priority 2001, dated 2007).
Like-named read-outs stand apart in the source and are kept apart here.

Assays:
[1] = biological target: T1, calcium release by IP3 (IP3 receptor) (Mus musculus, UniProt P11881); test: Inhibitory activity against calcium release by IP3 (cerebellum microsomes, fura2); format: biochemical
T1 construct: from tissue; host or cells: mouse cerebellum microsomes
Experimental: Furthermore, the supernatant was centrifuged (105,000 g, for 60 minutes). […] Then IP3 was added thereto, and the released calcium was measured by the measurement of the fluorescence of 500 nm obtained at 2-wavelength excitation of 340 nm and 380 nm, and the fluorescence ratio F=340/380.
(§1) 2-aminoethyl diphenylborinate was used as a comparative compound.

[2] = system: capacitative calcium entry in cell strain deficient of IP3 receptors produced from DT40; test: Inhibitory activity against capacitative calcium entry (fura-2 fluorescence ratio); format: cell-based, chickens; details: Gallus gallus
Experimental: Fura-2 acetoxymethylester was introduced to the cell strain deficient of IP3 receptors produced from the cultivated cell strain DT40 from chickens. The intracellular calcium concentration was measured by the measurement of the fluorescence of 510 nm obtained at 2-wavelength excitation of 340 nm and 380 nm, and its fluorescence ratio F=340/380.
Intracellular calcium store was depleted by activating tapsigalguine (inhibitor of the endoplasmic reticulum calcium pump) without the presence of the calcium ion in the extracellular fluid.
as §1

[3] = mouse cerebellum microsomes, calcium released with 30 nM of IP3 defined as 100%, read-out: IC50
[4] = increase rate of intracellular calcium concentration on adding 2 mM calcium chloride after store depletion with tapsigalguine, IP3 receptor-deficient DT40 cells, read-out: IC50

T1 sequence (P11881 whole entry): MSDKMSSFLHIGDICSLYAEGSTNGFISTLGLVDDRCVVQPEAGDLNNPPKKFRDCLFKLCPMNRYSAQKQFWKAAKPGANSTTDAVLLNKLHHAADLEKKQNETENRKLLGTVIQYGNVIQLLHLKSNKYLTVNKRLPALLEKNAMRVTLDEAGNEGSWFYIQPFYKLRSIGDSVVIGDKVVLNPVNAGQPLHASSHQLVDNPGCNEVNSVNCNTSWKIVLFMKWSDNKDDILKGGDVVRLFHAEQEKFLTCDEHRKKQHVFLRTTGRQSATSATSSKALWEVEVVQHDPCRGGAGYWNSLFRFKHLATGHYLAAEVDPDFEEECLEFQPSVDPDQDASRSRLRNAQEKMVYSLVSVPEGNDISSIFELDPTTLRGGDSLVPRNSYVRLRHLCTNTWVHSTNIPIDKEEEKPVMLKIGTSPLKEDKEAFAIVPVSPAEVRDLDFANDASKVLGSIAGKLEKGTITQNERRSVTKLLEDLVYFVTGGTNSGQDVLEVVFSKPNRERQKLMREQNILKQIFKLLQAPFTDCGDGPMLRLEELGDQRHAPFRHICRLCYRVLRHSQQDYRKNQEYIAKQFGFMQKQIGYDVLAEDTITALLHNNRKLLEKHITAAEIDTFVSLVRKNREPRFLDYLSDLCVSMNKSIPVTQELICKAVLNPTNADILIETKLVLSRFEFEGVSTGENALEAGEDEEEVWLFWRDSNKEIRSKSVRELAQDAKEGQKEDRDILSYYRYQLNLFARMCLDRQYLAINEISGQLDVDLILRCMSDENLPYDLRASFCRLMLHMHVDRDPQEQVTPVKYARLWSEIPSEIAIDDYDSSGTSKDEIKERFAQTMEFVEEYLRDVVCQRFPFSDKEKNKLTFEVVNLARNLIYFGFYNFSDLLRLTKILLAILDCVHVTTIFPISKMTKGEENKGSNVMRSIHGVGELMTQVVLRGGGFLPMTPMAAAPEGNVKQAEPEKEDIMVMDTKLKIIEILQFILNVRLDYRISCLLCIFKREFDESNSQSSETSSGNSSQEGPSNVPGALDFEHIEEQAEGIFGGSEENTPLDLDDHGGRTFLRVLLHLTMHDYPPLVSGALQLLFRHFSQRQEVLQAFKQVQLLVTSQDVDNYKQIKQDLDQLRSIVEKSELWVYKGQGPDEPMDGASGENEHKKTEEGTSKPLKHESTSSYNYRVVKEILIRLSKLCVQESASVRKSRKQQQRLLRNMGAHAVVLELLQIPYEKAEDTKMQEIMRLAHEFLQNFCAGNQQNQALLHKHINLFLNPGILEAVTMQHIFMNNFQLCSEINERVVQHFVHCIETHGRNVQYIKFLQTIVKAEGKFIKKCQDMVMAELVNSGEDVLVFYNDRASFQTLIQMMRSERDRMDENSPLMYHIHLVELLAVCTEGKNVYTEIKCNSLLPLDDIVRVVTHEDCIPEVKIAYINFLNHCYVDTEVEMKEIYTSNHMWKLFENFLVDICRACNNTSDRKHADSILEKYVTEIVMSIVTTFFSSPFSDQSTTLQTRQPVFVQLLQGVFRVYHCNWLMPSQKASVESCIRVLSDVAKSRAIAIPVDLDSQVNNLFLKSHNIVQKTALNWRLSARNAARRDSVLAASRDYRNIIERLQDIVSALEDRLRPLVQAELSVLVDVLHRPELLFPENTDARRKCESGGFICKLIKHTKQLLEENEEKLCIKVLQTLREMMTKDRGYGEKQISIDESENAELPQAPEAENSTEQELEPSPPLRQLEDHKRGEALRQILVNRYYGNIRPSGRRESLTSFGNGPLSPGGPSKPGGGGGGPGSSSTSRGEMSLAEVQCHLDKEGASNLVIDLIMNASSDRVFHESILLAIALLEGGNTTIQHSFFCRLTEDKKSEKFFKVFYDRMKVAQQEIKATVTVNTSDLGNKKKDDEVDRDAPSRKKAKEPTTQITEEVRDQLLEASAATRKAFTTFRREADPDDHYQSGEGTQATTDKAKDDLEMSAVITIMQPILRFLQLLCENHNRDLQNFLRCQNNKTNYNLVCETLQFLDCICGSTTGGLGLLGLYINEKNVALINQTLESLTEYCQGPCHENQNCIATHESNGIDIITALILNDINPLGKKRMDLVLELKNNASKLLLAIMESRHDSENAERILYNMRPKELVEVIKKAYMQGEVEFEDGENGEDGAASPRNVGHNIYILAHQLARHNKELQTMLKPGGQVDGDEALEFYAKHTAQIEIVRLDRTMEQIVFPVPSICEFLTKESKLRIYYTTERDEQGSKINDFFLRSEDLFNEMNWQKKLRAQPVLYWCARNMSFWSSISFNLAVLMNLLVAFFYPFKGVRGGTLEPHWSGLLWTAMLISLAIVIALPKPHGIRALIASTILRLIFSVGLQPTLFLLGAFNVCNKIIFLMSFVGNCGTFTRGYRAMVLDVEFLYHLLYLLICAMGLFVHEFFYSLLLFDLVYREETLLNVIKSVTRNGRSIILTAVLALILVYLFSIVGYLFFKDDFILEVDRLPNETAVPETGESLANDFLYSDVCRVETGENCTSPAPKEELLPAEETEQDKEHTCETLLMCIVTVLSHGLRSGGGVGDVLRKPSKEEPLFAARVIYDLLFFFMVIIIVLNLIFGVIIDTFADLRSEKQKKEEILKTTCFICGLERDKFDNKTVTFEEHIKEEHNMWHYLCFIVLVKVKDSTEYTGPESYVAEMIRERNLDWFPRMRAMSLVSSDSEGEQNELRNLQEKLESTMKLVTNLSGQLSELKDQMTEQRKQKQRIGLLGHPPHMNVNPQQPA

SMILES	IC50 [1, 3] [µM]	IC50 [2, 4] [µM]	further results
OB(c1ccc(Cl)cc1)c1ccc(COCc2ccccc2)cc1 [(3), (4-chlorophenyl)(4-benzyloxymethylphenyl)borate]	3	–	–
NCCOB(C1CCCC1)C1CCCC1 [(25), 2-aminoethyl dicyclopentylborate]	–	0.66	–
Cc1ccc(B(OCCN)c2ccc(C)c(Cl)c2)cc1Cl [(30), 2-aminoethyl bis(3-chloro-4-methylphenyl)borate]	2.6	–	–
CCOC(=O)N1CCC(NCC(OB(c2ccc(C)c(Cl)c2)c2ccc(C)c(Cl)c2)c2ccccc2)CC1 (stereo not shown) [(47), 1-phenyl-2-(1-(ethoxycarbonyl)-piperidine-4-ylamino)ethyl bis(3-chloro-4-methylphenyl)borate]	3.8	–	–
Cc1ccc(B(OC(CN(C)C)CN(C)C)c2ccc(C)c(Cl)c2)cc1Cl [(60), 1-(dimethylaminomethyl)-2-dimethylaminoethyl bis(3-chloro-4-methylphenyl)borate]	–	0.35	–
Cc1ccc(B(OC(c2ccc(C(F)(F)F)cc2)c2ccccn2)c2ccc(C)c(Cl)c2)cc1Cl (stereo not shown) [(62), 1-(4-trifluoromethylphenyl)-1-(2-pyridyl)methyl bis(3-chloro-4-methylphenyl)borate]	–	0.13	–
NCCOB(c1ccccc1)c1ccccc1 [Comparative Compound, 2-aminoethyl diphenylborinate, reference compound]	–	–	IC50 ([2]; DT40): 5 µM; IC50 [1]: 20 µM

Second part, led by results:

IC50 [1, 3] [µM]	IC50 [2, 4] [µM]	SMILES	further results
4.5	–	CC(C)(C)c1ccc(B(OCCN)c2ccc(Cl)cc2)cc1 [(84), 2-aminoethyl (4-chlorophenyl)(4-(1,1′-dimethylethyl)phenyl)borate]	–
3.6	0.63	Cc1ccc(B(OC(C)c2ccccn2)c2ccc(C)c(Cl)c2)cc1Cl (stereo not shown) [Compound (53), 1-(2-pyridyl)ethyl bis(3-chloro-4-methylphenyl)borate]	–
6	0.059	NCCOB(c1ccccc1)c1ccc(COCc2ccc(B(OCCN)c3ccccc3)cc2)cc1 [Compound (90), bis[4-[(2-aminoethoxy)phenylboryl]benzyl]ether]	–
